Test results published in US4112228A, “7-(D-α-Hydroxy-2-arylacetamido)-3-(2-carboxyalkyl-2,3-dihydro-s-tri azolo-[4,3-b]pyridazin-3-on-6-ylthiomethyl)-3-cephem-4-carboxylic acids and derivatives” (priority 1977, dated 1978).
In brackets after ≈: the same amount, converted by molar mass. Like-named read-outs stand apart in the source and are kept apart here.

Legend:
[1] = Blood levels in mice after subcutaneous administration; format: in vivo; details: mouse, read-out: Blood level; for concentration at 1 h: 60'; for concentration at 2 h: 120'
Procedure: Groups of mice were administered subcutaneously graded doses of 40, 20 and 10 mg./kg..

[2] = test system: E. cloacae A20464 (El-19); experiment: Standard experimental infection in mice; format: in vivo; details: Run C-811
St. faecalis = experiment: MIC by Steers' agar dilution method; details: Enterococcus faecalis
Ps. aeruginosa = experiment: MIC by Steers' agar dilution method; details: Pseudomonas aeruginosa
Shig. dysenteriae = experiment: MIC by Steers' agar dilution method; details: Shigella dysenteriae, MHA
Serr. marcescens = experiment: MIC by Steers' agar dilution method; details: Serratia marcescens
P. inconstans = experiment: MIC by Steers' agar dilution method; details: Providencia alcalifaciens
Klebsiella sp. = experiment: MIC by Steers' agar dilution method
Citrobacter sp. = experiment: MIC by Steers' agar dilution method
[3] = test system: P. mirabilis A9900 (Pm-2); experiment: Standard experimental infection (single sc treatment); details: for No. of survivors/No. tested: Run C-810, 1×10^3 LD50, single sc

Molecule Cn1nnnc1SCC1=C(C(=O)O)N2C(=O)[C@@H](NC(=O)[C@H](O)c3ccccc3)[C@H]2SC1 [Cefamandole, cefamandole, reference compound] has a concentration at 1 h ([1]; sc 20 mg./kg.) of 1 µg/mL, a concentration at 2 h ([1]; sc 20 mg./kg.) of less than 0.1 µg/mL and a concentration at 0.25 h ([1]; sc 40 mg./kg., 15') of 18 µg/mL. For the same molecule, the concentration at 0.5 h ([1]; sc 40 mg./kg., 30') was 11 µg/mL, the concentration at 1 h ([1]; sc 40 mg./kg.) was 3.9 µg/mL and the concentration at 2 h ([1]; sc 40 mg./kg.) was 0.3 µg/mL. For the same molecule, the ED50 ([2]; Enterobacter cloacae, read-out: PD50) was 0.8 mg/kg, the “No. of survivors/No. tested” value ([2]; 0.4 mg./kg.) was 1/5 and the “No. of survivors/No. tested” value ([2]; 1.6 mg./kg.) was 4/5. For the same molecule, the “No. of survivors/No. tested” value ([2]; 6.3 mg./kg.) was 5/5, the “No. of survivors/No. tested” value ([2]; 100 mg./kg.) was 5/5 and the MIC (St. faecalis) was 50 mg/L (≈ 108 µM). It also gave an MIC (St. faecalis; MHA, Example 10) greater than 100 mg/L, an MIC (St. faecalis; Sf-3 S. faecalis A9536, HIA, Table 4) of 100 mg/L (≈ 216 µM) and an MIC (St. faecalis; Sf-3 S. faecalis A9536, MHA, Table 4) of 100 mg/L (≈ 216 µM). It also gave an MIC (St. faecalis; Sf-3 S. faecalis A9536, NA, Table 4) greater than 100 mg/L, an MIC (Ps. aeruginosa; A9843, MHA, Table 1) greater than 100 mg/L and an MIC (Ps. aeruginosa; A9930, MHA, Table 1) greater than 100 mg/L. The MIC (Ps. aeruginosa; Pa-3 A9930, HIA, Table 4) was greater than 100 mg/L, the MIC (Ps. aeruginosa; Pa-3 A9930, MHA, Table 4) was greater than 100 mg/L and the MIC (Ps. aeruginosa; Pa-3 A9930, NA, Table 4) was greater than 100 mg/L. For the same molecule, the MIC (Ps. aeruginosa; strain not given (1st of 2), MHA, Example 10) was greater than 100 mg/L, the MIC (Ps. aeruginosa; strain not named (2nd of 2), MHA, Example 10) was greater than 100 mg/L and the MIC (Shig. dysenteriae; Example 10) was 0.1 mg/L (≈ 0.216 µM). The MIC (Shig. dysenteriae; Table 1) was 0.1 mg/L (≈ 0.216 µM), the MIC (Shig. dysenteriae; Sd-1, Table 3) was 0.2 mg/L (≈ 0.432 µM) and the MIC (Serr. marcescens; A20019, MHA, Table 1) was 100 mg/L (≈ 216 µM). It also gave an MIC (Serr. marcescens; MHA, Example 10) of 100 mg/L (≈ 216 µM), an MIC (Serr. marcescens; Sm-1 A20019 (β-lactamase), HIA, Table 4) of 50 mg/L (≈ 108 µM) and an MIC (Serr. marcescens; Sm-1 A20019 (β-lactamase), MHA, Table 4) of 100 mg/L (≈ 216 µM). It also gave an MIC (Serr. marcescens; Sm-1 A20019 (β-lactamase), NA, Table 4) of 50 mg/L (≈ 108 µM), an MIC (Serr. marcescens; Sm-1 A20019, MHA, Table 3) of 25 mg/L (≈ 54.1 µM) and an MIC (Serr. marcescens; Sm-2 A20335, MHA, Table 3) of 12.5 mg/L (≈ 27 µM). For the same molecule, the MIC (Serr. marcescens; Sm-3 A20336, HIA, Table 4) was 50 mg/L (≈ 108 µM), the MIC (Serr. marcescens; Sm-3 A20336, MHA, Table 3) was 12.5 mg/L (≈ 27 µM) and the MIC (Serr. marcescens; Sm-3 A20336, MHA, Table 4) was 100 mg/L (≈ 216 µM). It also gave an MIC (Serr. marcescens; Sm-3 A20336, NA, Table 4) of 50 mg/L (≈ 108 µM), an MIC (Serr. marcescens; Sm-4 A20442, MHA, Table 3) of 12.5 mg/L (≈ 27 µM) and an MIC (Serr. marcescens; Sm-5 A20222, MHA, Table 3) of 12.5 mg/L (≈ 27 µM). For the same molecule, the MIC (Serr. marcescens; Sm-6 A20460, MHA, Table 3) was 12.5 mg/L (≈ 27 µM), the MIC (Serr. marcescens; Sm-9 A20333, MHA, Table 3) was 50 mg/L (≈ 108 µM) and the MIC (Serr. marcescens; Sm-10 A20334, MHA, Table 3) was 50 mg/L (≈ 108 µM). It also gave an MIC (Serr. marcescens; Sm-11 A20459, MHA, Table 3) of 25 mg/L (≈ 54.1 µM), an MIC (Serr. marcescens; Sm-12 A20461, MHA, Table 3) of 50 mg/L (≈ 108 µM) and an MIC (P. inconstans) of 0.8 mg/L (≈ 1.73 µM). For the same molecule, the MIC (Klebsiella sp.; Kx-2 A9662, MHA, Table 3) was 1.6 mg/L (≈ 3.46 µM), the MIC (Klebsiella sp.; Kx-3 A20346 (β-lactamase), HIA, Table 4) was 0.4 mg/L (≈ 0.865 µM) and the MIC (Klebsiella sp.; Kx-3 A20346 (β-lactamase), MHA, Table 4) was 0.4 mg/L (≈ 0.865 µM). For the same molecule, the MIC (Klebsiella sp.; Kx-3 A20346 (β-lactamase), NA, Table 4) was 0.4 mg/L (≈ 0.865 µM), the MIC (Klebsiella sp.; Kx-3 A20346, MHA, Table 3) was 0.8 mg/L (≈ 1.73 µM) and the MIC (Citrobacter sp.; Citrobacter) was 1.6 mg/L (≈ 3.46 µM). The MIC (Citrobacter sp.; Cx-2 A20694, MHA, Table 3) was 1.6 mg/L (≈ 3.46 µM), the MIC (Citrobacter sp.; Cx-3 A20695, MHA, Table 3) was 1.6 mg/L (≈ 3.46 µM) and the ED50 ([3]; Proteus mirabilis, in Mus musculus, sc, read-out: PD50) was 50 mg/kg. For the same molecule, the “No. of survivors/No. tested” value ([3]; 0.2 mg./kg.) was 0/5, the “No. of survivors/No. tested” value ([3]; 0.8 mg./kg.) was 0/5 and the “No. of survivors/No. tested” value ([3]; 3.1 mg./kg.) was 0/5. The “No. of survivors/No. tested” value ([3]; 12.5 mg./kg.) was 1/5 and the “No. of survivors/No. tested” value ([3]; 50 mg./kg.) was 2/5.
